Data: paper PMC8825798 (Communications Biology, 2022)
Where “and” joins values, the source holds several entries; their conditions need not be identical. Identical values can stand only once. Peptide text beside a SMILES is read from it.

Columns and labels:
[1] = target: αCOPI-WD40 domain (residues 1-327) (Schizosaccharomyces pombe, UniProt Q96WV5, F197K/I192K/L181K/L185K/L196K); assay: biochemical; format: binding
[2] = target: T1, sarbecovirus spike hepta-peptide, wild type (1267Gly-Val-Lys-Leu-His-Tyr-Thr1273) (SARS-CoV-2); assay: BLI; conditions: both partners purified
T1 peptide: GVKLHYT

Molecule | Kd ([1]; Equilibrium KD) | Kd ([1]; Kinetic KD) | koff ([1]; pH 6.5) [s⁻¹] | kon ([1]; pH 6.5) | also measured
GVALAYT | – | – | – | – | Binding to αCOPI-WD40 (in words) ([1]; pH 6.5): does not demonstrate any substantial binding
CC(C)C[C@H](NC(=O)[C@H](CCCCN)NC(=O)[C@@H](NC(=O)CN)C(C)C)C(=O)N[C@@H](Cc1c[nH]cn1)C(=O)N[C@@H](Cc1ccc(O)cc1)C(=O)N[C@@H](C)C(=O)O [GVKLHYA] (H-GVKLHYA-OH) | 1.13 ± 0.05 µM | 1.14 ± 0.02 µM | 0.076 ± 0.001 | 66.67 ± 0.80 10^3/Ms | –
GVALHYT | – | – | – | – | Binding to αCOPI-WD40 (in words) ([1]; pH 6.5): abolished binding
CC(C)C[C@H](NC(=O)[C@H](CCCCN)NC(=O)[C@@H](NC(=O)CN)C(C)C)C(=O)N[C@@H](Cc1c[nH]cn1)C(=O)N[C@@H](Cc1ccc(O)cc1)C(=O)N[C@@H](CCC(=O)O)C(=O)O [GVKLHYE] (H-GVKLHYE-OH) | 0.31 ± 0.01 µM | 0.38 ± 0.01 µM | 0.024 ± 0.0003 | 58.96 ± 0.54 10^3/Ms | –
CC(C)C[C@H](NC(=O)[C@H](CCCCN)NC(=O)[C@@H](NC(=O)CN)C(C)C)C(=O)N[C@@H](Cc1c[nH]cn1)C(=O)N[C@@H](Cc1ccc(O)cc1)C(=O)N[C@H](C(=O)O)[C@@H](C)O [GVKLHYT] (H-GVKLHYT-OH) | 4.17 µM and 1.4 µM | 2.75 µM and 0.95 µM | 0.145 ± 0.001 | 152.13 ± 3.45 10^3/Ms | koff ([1]; pH 7.5): 0.25 ± 0.003 s⁻¹; kon ([1]; pH 7.5): 89.96 ± 2.72 10^3/Ms
CC(C)C[C@H](NC(=O)[C@H](CCCCN)NC(=O)[C@@H](NC(=O)CN)C(C)C)C(=O)N[C@@H](Cc1c[nH]cn1)C(=O)N[C@@H](Cc1ccc(O)cc1)C(=O)N[C@H](C(=O)O)C(C)C [GVKLHYV] (H-GVKLHYV-OH) | 3.2 ± 0.04 µM | 2.06 ± 0.05 µM | 0.212 ± 0.002 | 102.67 ± 2.61 10^3/Ms | –
CC(C)C[C@H](NC(=O)[C@H](CCCCN)NC(=O)[C@@H](NC(=O)CN)C(C)C)C(=O)N[C@@H](Cc1c[nH]cn1)C(=O)N[C@@H](Cc1ccc(O)cc1)C(=O)N[C@@H](CCC(N)=O)C(=O)O [GVKLHYQ] (H-GVKLHYQ-OH) | 0.78 ± 0.04 µM | 1.15 ± 0.01 µM | 0.066 ± 0.001 | 60.05 ± 0.75 10^3/Ms | –
VLKTYHG | – | – | – | – | Binding to αCOPI-WD40 (in words) ([1]; pH 7.5): no detectable interaction
CC(C)C[C@H](NC(=O)[C@H](CCCCN)NC(=O)[C@@H](NC(=O)CN)C(C)C)C(=O)N[C@@H](Cc1c[nH]cn1)C(=O)N[C@@H](Cc1ccc(O)cc1)C(=O)N[C@@H](CCCNC(=N)N)C(=O)O [GVKLHYR] (H-GVKLHYR-OH) | 1.73 ± 0.24 µM | 1.29 ± 0.04 µM | 0.177 ± 0.001 | – | –
KEVYLHG | – | – | – | – | Binding to αCOPI-WD40 (in words) ([1]; pH 6.5): weak binding
GVKLAYT | – | – | – | – | Binding to αCOPI-WD40 (in words) ([1]; pH 6.5): abolished binding
CC(C)C[C@H](NC(=O)[C@H](CCCCN)NC(=O)[C@@H](NC(=O)CN)C(C)C)C(=O)N[C@@H](CCCCN)C(=O)N[C@@H](Cc1ccc(O)cc1)C(=O)N[C@H](C(=O)O)[C@@H](C)O [GVKLKYT] (H-GVKLKYT-OH) | – | 2.71 µM | – | – | koff ([1]; pH 7.5): 0.184 s⁻¹; kon ([1]; pH 7.5): 67.3 ± 1.45 10^3/Ms
CC(C)C[C@H](NC(=O)[C@H](CCCCN)NC(=O)[C@@H](NC(=O)CN)C(C)C)C(=O)N[C@@H](Cc1c[nH]cn1)C(=O)N[C@@H](C)C(=O)N[C@H](C(=O)O)[C@@H](C)O [GVKLHAT] (H-GVKLHAT-OH) | 3.77 ± 0.34 µM | 2.32 ± 0.07 µM | 0.28 ± 0.003 | 120.87 ± 3.39 10^3/Ms | –
αCOPI-WD40 domain (residues 1-327) from Schizosaccharomyces pombe (domain or fragment) MEMLTKFESRSSRAKGVAFHPTQPWILTSLHNGRIQLWDYRMGTLLDRFDGHDGPVRGIAFHPTQPLFVSGGDDYKVNVWNYKSRKLLFSLCGHMDYVRVCTFHHEYPWILSCSDDQTIRIWNWQSRNCIAILTGHSHYVMCAAFHPSEDLIVSASLDQTVRVWDISGLRMKNAAPVSMSKEDQKAQAHNSKSNDKKGSTDAIVKFVLEGHDRGVNWCAFHPTLPLILSAGDDRLVKLWRMTASKAWEVDTCRGHFNNVSCCLFHPHQELILSASEDKTIRVWDLNRRTAVQTFRRDNDRFWFITVHPKLNLFAAAHDSGVMVFKLE | – | – | – | – | koff [2]: 0.145 s⁻¹ and 0.25 s⁻¹; kon [2]: 152000 M⁻¹ s⁻¹ and 90000 M⁻¹ s⁻¹
